Assay results taken from article PMC4325551, “Inhibition of Rat 5α-Reductase Activity and Testosterone-Induced Sebum Synthesis in Hamster Sebocytes by an Extract of Quercus acutissima Cortex” (Evidence-based Complementary and Alternative Medicine : eCAM, 2015).

What was measured:
[1] = biological target: T1, rat liver microsomal 5α-reductase (Rattus norvegicus, UniProt P24008); experiment: 5α-reductase assay using rat liver microsomes (testosterone metabolism, HPLC and TLC); format: biochemical; settings: for inhibition of 5α-reductase activity: at 10 and 100 μmol/L; for Inhibitory activity on 5α-reductase (% of control) / IC50: testosterone 3.5 μmol/L, 30 min, rat liver microsomes 40 μg/mL, HPLC; for Inhibitory activity on 5α-reductase (% of control): mean ± SEM, N = 3; for effect on 5α-reductase activity: examined at 0.1, 1, 10, and 100 μmol/L
T1 construct: The reaction was started with the addition of liver microsomes (20 μg protein); from tissue; host or cells: liver microsomes of male Sprague–Dawley rats
T1 sequence (P24008 1-259): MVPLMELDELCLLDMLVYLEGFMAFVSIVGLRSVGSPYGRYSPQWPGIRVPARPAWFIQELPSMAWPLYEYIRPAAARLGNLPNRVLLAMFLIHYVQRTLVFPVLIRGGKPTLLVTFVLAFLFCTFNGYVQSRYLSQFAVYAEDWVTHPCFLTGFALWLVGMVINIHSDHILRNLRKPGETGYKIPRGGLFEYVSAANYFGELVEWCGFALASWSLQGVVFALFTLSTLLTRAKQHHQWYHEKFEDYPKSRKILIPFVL
Protocol: Rat liver microsomes were prepared by the method of Lee et al.. Male Sprague–Dawley rats (body weight, 300 to 320 g; Clea Japan, Tokyo, Japan) were fasted overnight to decrease the concentration of liver glycogen and then sacrificed. The liver was excised and washed in ice-cold homogenizing buffer containing 0.32 mol/L sucrose, 1 mmol/L dithiothreitol (Wako Pure Chemical Industries), and 20 mmol/L potassium phosphate, pH 6.5. The following procedures were all carried out at 4°C. The tissue was minced with a pair of scissors and then homogenized in homogenizing buffer using a Potter-Elvehjem grinder. The homogenate was then centrifuged at 10 000 g for 10 min. The resulting pellet was washed with two pellet volumes of homogenizing buffer and centrifuged again. The supernatants from the two centrifugations were combined and further centrifuged at 105 000 g for 1 h. The resulting pellet (microsomes) was suspended in homogenizing buffer and centrifuged again. The microsomes were resuspended in homogenizing buffer. The microsome suspension was divided into small aliquots and stored at −80°C. The microsomes were diluted with 40 mmol/L potassium phosphate, pH 6.5, immediately before use. Unlike human liver, rat liver microsomes have the 5α-R1 but not the 5α-R2 isoform.
Briefly, the reaction solution was preincubated with or without a test sample in 1 mmol/L dithiothreitol, 40 mmol/L potassium phosphate, pH 6.5, 100 μmol/L NADPH (Oriental Yeast, Tokyo, Japan), and 3.5 μmol/L testosterone (Wako Pure Chemical Industries) in a final volume of 0.5 mL for 20 min at room temperature. The reaction was started with the addition of liver microsomes (20 μg protein). After incubation at 37°C for 30 min, the reaction solution was extracted with 2 mL ethyl acetate. The ethyl acetate phase (upper phase) was transferred to a tube and evaporated using a centrifugal concentrator (Tomy Seiko, Tokyo, Japan). Testosterone and the metabolites were measured by two chromatography methods, HPLC (Shimadzu, Kyoto, Japan) and TLC.
The residue was dissolved in acetonitrile and analyzed using the HPLC system. The reverse-phase HPLC analysis was performed on a C18 column (3.0 × 150 mm, GL Science, Japan) at a column oven temperature of 50°C and UV detection of 240 nm. The isocratic mobile phase of acetonitrile/water (50 : 50, v/v) was flowed at 0.4 mL/min through the column.
To detect the steroids by TLC, the residue containing steroids was taken up in ethanol and chromatographed on a TLC plate (Silica gel 60 F254, Merck, Darmstadt, Germany), using ethyl acetate-hexane (1 : 1, v/v) as the developing solvent system at room temperature. Testosterone, (Tokyo Chemical Industry Co., Tokyo, Japan) and 5α-androstane-3α,17β-diol (Sigma-Aldrich) were applied to TLC as androgen standards. The plate was exposed to 10% sulfuric acid using an atomizer and then heated on a hot plate. The fluorescent signals were visualized by irradiation of UV light at 302 nm using a ChemiDoc XRS Plus (BIO-RAD, Hercules, CA).

[2] = tested on: primary hamster sebocytes (Ha-SE); experiment: cell cytotoxicity (XTT) in undifferentiated hamster sebocytes; settings: 0.2% triton X-100, 24 h in the presence of EGF
Protocol: Four Figures and Two Tables
Hamster-derived sebaceous gland cells (Ha-SE) were precultured until confluent in the presence of 10 ng/mL epidermal growth factor (EGF), and further cultured with 10, 30 […]
vehicle in the presence of EGF. Twenty four hours later, cell cytotoxicity was measured […]
Fig. S2. Bioconversion of exogenous dihydrotestosterone to 5α-androstane-3,17-diol by rat liver microsomal enzymes […]
min in the presence or absence of rat liver microsomes (40 μg/mL) and the co-factors.
The metabolites were extracted with ethyl acetate after incubation, and analyzed by TLC. All androgen standards were applied at 0.1 μg/μL/spot. T.: testosterone, DHT: dihydrotestosterone, A.diol: 5α-androstane-3α,17β-diol

Compound | inhibition of 5α-reductase activity [1] | Inhibitory activity on 5α-reductase (% of control) ([1]; test sample 0.1 μmol/L) | Inhibitory activity on 5α-reductase (% of control) ([1]; test sample 1 μmol/L) | Inhibitory activity on 5α-reductase (% of control) ([1]; test sample 10 μmol/L) | Inhibitory activity on 5α-reductase (% of control) ([1]; test sample 100 μmol/L) | IC50 [1] | effect on 5α-reductase activity [1] | cytotoxicity [2]
O=C(O[C@H]1[C@@H]2OC(=O)c3cc(O)c(O)c(O)c3-c3c(cc(O)c(O)c3O)C(=O)OC[C@H]2OC(O)[C@@H]1OC(=O)c1cc(O)c(O)c(O)c1)c1cc(O)c(O)c(O)c1 (stereo partly drawn) [1-Desgalloyl eugeniin, 1-desgalloyl eugeniin] | more than 50% | 4.6 ± 0.2 % of control | 9.2 ± 1.6 % of control | 52.5 ± 2.4 % of control | 107.9 ± 0.9 % of control | 12.6 µM | – | –
Oc1cc(O)c2c(c1)O[C@H](c1ccc(O)c(O)c1)[C@@H](O)C2 [(+)-catechin] | – | – | – | – | – | – | did not show any effect | –
Oc1cc(O)c2c(c1)O[C@H](c1cc(O)c(O)c(O)c1)[C@@H](O)C2 [(+)-gallocatechin, (+)-Gallocatechin] | – | – | – | – | – | – | did not show any effect | –
O=C1c2c(O)cc(O)cc2O[C@H](c2ccc(O)c(O)c2)[C@H]1O [(+)-taxifolin] | – | – | – | – | – | – | did not show any effect | –
O=C(O[C@@H]1Cc2c(O)cc(O)cc2O[C@@H]1c1ccc(O)c(O)c1)c1cc(O)c(O)c(O)c1 [(−)-Epicatechin gallate, (−)-epicatechin gallate] | more than 50% | 4.6 ± 0.2 % of control | 4.9 ± 0.2 % of control | 5.9 ± 0.3 % of control | 69.4 ± 1.2 % of control | 10 to 100 µM | – | –
O=C(O[C@@H]1Cc2c(O)cc(O)cc2O[C@@H]1c1cc(O)c(O)c(O)c1)c1cc(O)c(O)c(O)c1 [(−)-Epigallocatechin gallate, (−)-epigallocatechin gallate] | more than 50% | 3.7 ± 0.1 % of control | 4.4 ± 0.4 % of control | 5.3 ± 0.3 % of control | 58.6 ± 2.7 % of control | 10 to 100 µM | – | –
Oc1cc(O)c2c(c1)O[C@@H](c1cc(O)c(O)c(O)c1)[C@H](O)C2 [(−)-gallocatechin] | – | – | – | – | – | – | did not show any effect | –
O=C1OC[C@H]2OC(=O)c3cc(O)c(O)c(O)c3-c3c(O)c(O)c(O)c4c3C(=O)O[C@H]([C@H]3OC(=O)c5c-4c(O)c(O)c(O)c5[C@H]3O)[C@@H]2OC(=O)c2cc(O)c(O)c(O)c2-c2c1cc(O)c(O)c2O [Castalagin, castalagin] | more than 50% | 4.9 ± 0.5 % of control | 6.3 ± 1.2 % of control | 70.7 ± 3.2 % of control | 113.3 ± 7.6 % of control | 8 µM | – | –
O=C(O[C@@H]1COC(=O)c2cc(O)c(O)c(O)c2-c2c(cc(O)c(O)c2O)C(=O)O[C@H]1[C@@H]1OC(=O)c2cc(O)c(O)c(O)c2-c2c(O)c(O)c(O)c3c2C(=O)O[C@H]1[C@@H]3O)c1cc(O)c(O)c(O)c1 [Casuarinin, casuarinin] | more than 50% | 6.4 ± 1.4 % of control | 10.8 ± 0.7 % of control | 59.0 ± 2.0 % of control | 110.1 ± 0.5 % of control | 10.5 µM | – | –
O=C(O[C@@H]1O[C@@H]2COC(=O)c3cc(O)c(O)c(O)c3-c3c(cc(O)c(O)c3O)C(=O)O[C@H]2[C@H](OC(=O)c2cc(O)c(O)c(O)c2)[C@H]1OC(=O)c1cc(O)c(O)c(O)c1)c1cc(O)c(O)c(O)c1 [Eugeniin, eugeniin] | more than 50% | 4.2 ± 1.0 % of control | 13.9 ± 0.5 % of control | 62.5 ± 0.6 % of control | 114.6 ± 0.6 % of control | 10.9 µM | – | –
O=C(OC[C@H]1OC(O)[C@@](O)(COC(=O)c2cc(O)c(O)c(O)c2)[C@@H]1O)c1cc(O)c(O)c(O)c1 (stereo partly drawn) [Hamamelitannin, 2′,5-di-O-galloyl hamamelose] | – | – | – | – | – | – | did not show any effect | –
O=C(OC[C@H]1OC(OC(=O)c2cc(O)c(O)c(O)c2)[C@H](OC(=O)c2cc(O)c(O)c(O)c2)[C@@H](OC(=O)c2cc(O)c(O)c(O)c2)[C@@H]1O)c1cc(O)c(O)c(O)c1 (stereo partly drawn) [Tetragalloyl glucose, 1,2,3,6-tetra-O-galloyl glucose] | more than 50% | 3.3 ± 0.5 % of control | 18.7 ± 0.4 % of control | 63.2 ± 3.0 % of control | 102.8 ± 1.2 % of control | 8.1 µM | – | –
COc1cc2ccc(=O)oc2c(O[C@@H]2O[C@H](CO)[C@@H](O)[C@H](O)[C@H]2O)c1O [fraxin] | – | – | – | – | – | – | did not show any effect | –
O=C(O)c1cc(O)c(O)c(O)c1 [gallic acid, Gallic acid] | – | – | – | – | – | – | did not show any effect | –
COC(=O)c1cc(O)c(O)c(O)c1 [methyl gallate] | – | – | – | – | – | – | did not show any effect | –
stenophyllanin C | more than 50% | 5.6 ± 0.6 % of control | 4.6 ± 0.5 % of control | 63.1 ± 0.4 % of control | 102.3 ± 2.2 % of control | 7.2 µM | – | –
triton X-100 [reference compound] | – | – | – | – | – | – | – | significant cytotoxicity
